These compounds were tested against T1, PDE4B2 (GB no. M97515) (Homo sapiens, UniProt Q07343) (assay: Inhibition of PDE4B2 activity, Method b (modified SPA test, recombinant PDE expressed in SF21 cells)). Settings: 0.5 μM cAMP, read-out: Inhibition of the PDE4 activity, −log IC50 (converted).
T1 construct: made in house; host or cells: SF21 insect cells (baculovirus; virus made in SF9 cells)
Format: biochemical
Experimental: The PDE4B2 (GB no. M97515) was a gift of Prof. M. Conti (Stanford University, USA). It was amplified from the original plasmid (pCMV5) via PCR with primers Rb9 (5′-[…]-3′) and Rb10 (5′-[…]-3′) and cloned into the pCR-Bac vector (Invitrogen, Groningen, NL).
The recombinant baculovirus was prepared by means of homologous recombination in SF9 insect cells. The expression plasmid was cotransfected with Bac-N-Blue (Invitrogen, Groningen, NL) or Baculo-Gold DNA (Pharmingen, Hamburg) using a standard protocol (Pharmingen, Hamburg). Wt virus-free recombinant virus supernatant was selected using plaque assay methods. After that, high-titre virus supernatant was prepared by amplifying 3 times. PDE was expressed in SF21 cells by infecting 2×10^6 cells/ml with an MOI (multiplicity of infection) between 1 and 10 in serum-free SF900 medium (Life Technologies, Paisley, UK). The cells were cultured at 28° C. for 48-72 hours, after which they were pelleted for 5-10 min at 1000 g and 4° C.
The SF21 insect cells were resuspended, at a concentration of approx. 10^7 cells/ml, in ice-cold (4° C.) homogenization buffer (20 mM Tris, pH 8.2, containing the following additions: 140 mM NaCl, 3.8 mM KCl, 1 mM EGTA, 1 mM MgCl2, 10 mM β-mercaptoethanol, 2 mM benzamidine, 0.4 mM Pefablock, 10 μM leupeptin, 10 μM pepstatin A, 5 μM trypsin inhibitor) and disrupted by ultrasonication. The homogenate was then centrifuged for 10 min at 1000×g and the supernatant was stored at −80° C. until subsequent use (see below). The protein content was determined by the Bradford method (BioRad, Munich) using BSA as the standard.
PDE4B2 activity is inhibited by the said compounds in a modified SPA (scintillation proximity assay) test, supplied by Amersham Biosciences (see procedural instructions “phosphodiesterase [3H]cAMP SPA enzyme assay, code TRKQ 7090”), carried out in 96-well microtiter plates (MTP's). The test volume is 100 μl and contains 20 mM Tris buffer (pH 7.4), 0.1 mg of BSA (bovine serum albumin)/ml, 5 mM Mg^2+, 0.5 μM cAMP (including about 50,000 cpm of [3H]cAMP), 1 μl of the respective substance dilution in DMSO and sufficient recombinant PDE (1000×g supernatant, see above) to ensure that 10-20% of the cAMP is converted under the said experimental conditions. […] After a preincubation of 5 min at 37° C., the reaction is started by adding the substrate (cAMP) and the assay is incubated for a further 15 min; after that, it is stopped by adding SPA beads (50 μl). In accordance with the manufacturer's instructions, the SPA beads had previously been resuspended in water, but were then diluted 1:3 (v/v) in water; the diluted solution also contains 3 mM IBMX to ensure a complete PDE activity stop. After the beads have been sedimented (>30 min), the MTP's are analyzed in commercially available luminescence detection devices. The corresponding IC50 values of the compounds for the inhibition of PDE activity are determined from the concentration-effect curves by means of non-linear regression.

T1 sequence (Q07343 1-564 isoform Q07343-2): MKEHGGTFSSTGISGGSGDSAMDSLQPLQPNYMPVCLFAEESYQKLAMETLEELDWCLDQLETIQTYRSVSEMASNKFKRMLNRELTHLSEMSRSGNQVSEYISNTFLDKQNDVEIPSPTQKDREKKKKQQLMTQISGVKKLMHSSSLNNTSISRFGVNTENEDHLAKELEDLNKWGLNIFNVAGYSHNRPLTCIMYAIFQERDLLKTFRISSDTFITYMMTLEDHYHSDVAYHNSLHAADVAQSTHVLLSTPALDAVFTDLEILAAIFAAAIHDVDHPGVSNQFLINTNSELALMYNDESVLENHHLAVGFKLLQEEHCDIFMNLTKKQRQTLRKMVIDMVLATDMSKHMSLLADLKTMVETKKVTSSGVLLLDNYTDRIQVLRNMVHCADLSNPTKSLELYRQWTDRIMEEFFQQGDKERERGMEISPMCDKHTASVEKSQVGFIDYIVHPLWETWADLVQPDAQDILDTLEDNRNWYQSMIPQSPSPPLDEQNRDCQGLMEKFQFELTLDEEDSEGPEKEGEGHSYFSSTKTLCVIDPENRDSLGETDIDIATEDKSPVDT

IC50, 0.182 to 6.03 nM:
CCCCOc1ccc(C2=N[C@@H]3CC[C@@H](O)C[C@@H]3c3cc(OC)c(OC)cc32)cc1 (racemic) [Compound 43, (±)-(2RS,4aRS,10bRS)-6-(4-Butoxy-phenyl)-8,9-dimethoxy-1,2,3,4,4a,10b-hexahydrophenanthridin-2-ol]
COc1cc2c(cc1OC)[C@H]1C[C@H](O)CC[C@H]1N=C2c1ccc(NC(C)=O)cc1 (racemic) [Compound 45, (±)-N-[4-((2RS,4aRS,10bRS)-2-Hydroxy-8,9-dimethoxy-1,2,3,4,4a,10b-hexahydro-phenanthridin-6-yl)-phenyl]-acetamide]
COc1cc2c(cc1OC)[C@H]1C[C@H](O)CC[C@H]1N=C2c1ccc(Cl)cc1 (racemic) [Compound 46, (±)-(2RS,4aRS,10bRS)-6-(4-Chloro-phenyl)-8,9-dimethoxy-1,2,3,4,4a,10 b-hexahydro-phenanthridin-2-ol]
CCCOc1cc(C2=N[C@@H]3CC[C@@H](O)C[C@@H]3c3cc(OC)c(OC)cc32)ccc1OC (racemic) [Compound 48, (±)-(2RS,4aRS,10bRS)-8,9-Dimethoxy-6-(4-methoxy-3-propoxy-phenyl)-1,2,3,4,4a,10b-hexahydro-phenanthridin-2-ol]
COc1cc2c(cc1OC)[C@H]1C[C@H](O)CC[C@H]1N=C2c1ccc(OC(F)F)cc1 (racemic) [Compound 49, (±)-(2RS,4aRS,10bRS)-6-[4-(1,1-Difluoro-methoxy)-phenyl]-8,9-dimethoxy-1,2,3,4,4a,10b-hexahydro-phenanthridin-2-ol]
CCOc1cc2c(cc1OC)C(c1ccc(C(=O)OC)cc1)=N[C@@H]1CC[C@@H](O)C[C@H]21 (racemic) [Compound 50, (±)-4-((2RS,4aRS,10bRS)-9-Ethoxy-2-hydroxy-8-methoxy-1,2,3,4,4a,10 b-hexahydro-phenanthridin-6-yl)-benzoic acid methyl ester]
CCOc1cc2c(cc1OC)C(c1ccc(F)cc1)=N[C@@H]1CC[C@@H](O)C[C@H]21 (racemic) [Compound 51, (±)-(2RS,4aRS,10bRS)-9-Ethoxy-6-(4-fluoro-phenyl)-8-methoxy-1,2,3,4,4a,10b-hexahydro-phenanthridin-2-ol]
CCOc1cc2c(cc1OC)C(c1ccc(C#N)cc1)=N[C@@H]1CC[C@@H](O)C[C@H]21 (racemic) [Compound 52, (±)-4-((2RS,4aRS,10bRS)-9-Ethoxy-2-hydroxy-8-methoxy-1,2,3,4,4a,10b-hexahydro-phenanthridin-6-yl)-benzonitrile]
CCOc1cc2c(cc1OC)C(c1ccc(OCC)c(OCC3CC3)c1)=N[C@@H]1CC[C@@H](O)C[C@H]21 (racemic) [Compound 53, (±)-(2RS,4aRS,10bRS)-6-(3-Cyclopropylmethoxy-4-ethoxy-phenyl)-9-ethoxy-8-methoxy-1,2,3,4,4a,10b-hexahydro-phenanthridin-2-ol]
CCOc1cc2c(cc1OC)C(c1ccc(OC(F)F)c(OCC3CC3)c1)=N[C@@H]1CC[C@@H](O)C[C@H]21 (racemic) [Compound 54, (±)-(2RS,4aRS,10bRS)-6-[3-Cyclopropylmethoxy-4-(1,1-difluoro-methoxy)-phenyl]-9-ethoxy-8-methoxy-1,2,3,4,4a,10b-hexahydro-phenanthridin-2-ol]
CCOc1cc2c(cc1OC)C(c1ccc(OC(F)F)c(OC(F)F)c1)=N[C@@H]1CC[C@@H](O)C[C@H]21 (racemic) [Compound 55, (±)-(2RS,4aRS,10bRS)-6-[3,4-Bis-(1,1-difluoro-methoxy)-phenyl]-9-ethoxy-8-methoxy-1,2,3,4,4a,10b-hexahydro-phenanthridin-2-ol]
CCOc1cc2c(cc1OC)C(c1cccc(OC(F)F)c1)=N[C@@H]1CC[C@@H](O)C[C@H]21 (racemic) [Compound 56, (±)-(2RS,4aRS,10bRS)-6-[3-(1,1-Difluoro-methoxy)-phenyl]-9-ethoxy-8-methoxy-1,2,3,4,4a,10b-hexahydro-phenanthridin-2-ol]
CCOc1cc2c(cc1OC)C(c1ccc(OC(F)(F)C(F)F)cc1)=N[C@@H]1CC[C@@H](O)C[C@H]21 (racemic) [Compound 57, (±)-(2RS,4aRS,10bRS)-9-Ethoxy-8-methoxy-6-[4-(1,1,2,2-tetrafluoro-ethoxy)-phenyl]-1,2,3,4,4a,10b-hexahydro-phenanthridin-2-ol]
CCOc1cc2c(cc1OC)C(c1ccc(OC(F)(F)F)cc1)=N[C@@H]1CC[C@@H](O)C[C@H]21 (racemic) [Compound 58, (±)-(2RS,4aRS,10bRS)-9-Ethoxy-8-methoxy-6-(4-trifluoromethoxy-phenyl)-1,2,3,4,4a,10b-hexahydro-phenanthridin-2-ol]
CCOc1cc2c(cc1OC)C(c1ccc(OC)c(F)c1)=N[C@@H]1CC[C@@H](O)C[C@H]21 (racemic) [Compound 59, (±)-(2RS,4aRS,10bRS)-9-Ethoxy-6-(3-fluoro-4-methoxy-phenyl)-8-methoxy-1,2,3,4,4a,10b-hexahydro-phenanthridin-2-ol]
CCOc1cc2c(cc1OC)C(c1ccc(F)c(F)c1)=N[C@@H]1CC[C@@H](O)C[C@H]21 (racemic) [Compound 60, (±)-(2RS,4aRS,10bRS)-6-(3,4-Difluoro-phenyl)-9-ethoxy-8-methoxy-1,2,3,4,4a,10b-hexahydro-phenanthridin-2-ol]
CCOc1cc2c(cc1OC)C(c1cccc(F)c1)=N[C@@H]1CC[C@@H](O)C[C@H]21 (racemic) [Compound 61, (±)-(2RS,4aRS, 10bRS)-9-Ethoxy-6-(3-fluoro-phenyl)-8-methoxy-1,2,3,4,4a,10b-hexahydro-phenanthridin-2-ol]
CCOc1cc2c(cc1OC)C(c1ccc(Br)cc1)=N[C@@H]1CC[C@@H](O)C[C@H]21 (racemic) [Compound 62, (±)-(2RS,4aRS,10bRS)-6-(4-Bromo-phenyl)-9-ethoxy-8-methoxy-1,2,3,4,4a,10b-hexahydro-phenanthridin-2-ol]
COc1cc2c(cc1OC)[C@H]1C[C@H](O)CC[C@H]1N=C2c1ccc(C)cc1 (racemic) [Compound 63, (±)-(2RS,4aRS,10bRS)-8,9-Dimethoxy-6-p-tolyl-1,2,3,4,4a,10b-hexahydro-phenanthridin-2-ol]
COc1cc2c(cc1OC)[C@H]1C[C@H](O)CC[C@H]1N=C2c1ccc(Oc2ccccc2)cc1 (racemic) [Compound 64, (±)-(2RS,4aRS,10bRS)-8,9-Dimethoxy-6-(4-phenoxy-phenyl)-1,2,3,4,4a,10b-hexahydro-phenanthridin-2-ol]
COCCO[C@@H]1CC[C@H]2N=C(c3ccc(OCC4CC4)c(OCC4CC4)c3)c3cc(OC)c(OC)cc3[C@H]2C1 (racemic) [Compound 76, (±)-(2RS,4aRS,10bRS)-6-(3,4-Bis-cyclopropylmethoxy-phenyl)-8,9-dimethoxy-2-(2-methoxy-ethoxy)-1,2,3,4,4a,10b-hexahydro-phenanthridine]

Source: patent US7632844B2, “2-hydroxy-6-phenylphenanthridines as PDE-4 inhibitors” (Nycomed GmbH, priority 2002, dated 2009)
